Measured values from ChEMBL document CHEMBL3886943, “C2-azaspiro iminothiazine dioxides as BACE inhibitors, compositions, and their use” (2016).

Tests used:
Beta-secretase 2 = molecular target: T1, Beta-secretase 2 (Homo sapiens, UniProt Q9Y5Z0); experiment: DMSO is present at 5% final concentration in the assay. Following laser excitation of sample wells at 320 nm, the fluorescence signal at 620 nm is collected for 400 ms following a 50 us delay on a RUBYstar HTRF plate reader (BMG Labtechnologies). Raw RFU data is normalized to maximum (1.0 nM BACE/DMSO) and minimum (no enzyme/DMSO) RFU values. […] The Ki values are calculated from the IC50 using the Cheng-Prusoff equation.
T1 sequence (Q9Y5Z0 whole entry): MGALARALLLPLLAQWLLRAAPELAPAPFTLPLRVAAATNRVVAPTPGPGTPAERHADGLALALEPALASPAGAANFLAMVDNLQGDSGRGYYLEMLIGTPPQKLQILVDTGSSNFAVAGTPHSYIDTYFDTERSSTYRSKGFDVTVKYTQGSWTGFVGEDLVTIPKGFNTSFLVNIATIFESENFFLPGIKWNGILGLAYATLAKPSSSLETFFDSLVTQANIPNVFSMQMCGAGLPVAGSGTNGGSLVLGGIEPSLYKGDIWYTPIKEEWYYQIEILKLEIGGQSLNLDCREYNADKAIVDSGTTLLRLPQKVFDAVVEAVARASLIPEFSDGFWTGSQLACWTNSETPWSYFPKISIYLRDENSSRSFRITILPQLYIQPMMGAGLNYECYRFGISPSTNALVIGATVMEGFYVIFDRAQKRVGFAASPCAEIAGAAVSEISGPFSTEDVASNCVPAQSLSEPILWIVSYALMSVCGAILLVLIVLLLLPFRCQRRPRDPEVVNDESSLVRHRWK

Beta-secretase 1 = Beta-secretase 1 (Homo sapiens, UniProt P56817); experiment: This assay monitors the increase of 620 nm fluorescence that resulted from BACE1 cleavage of an APPswedish APPswe mutant peptide FRET substrate (QSY7-[…]-Europium-amide). This substrate contains an N-terminal QSY7 moiety that serves as a quencher of the C-terminal Europium fluorophore (620 nm Em). […] Reactions are initiated by addition of 10 ul of 600 nM QSY7-APPswe-Eu substrate (200 nM final) to give a final reaction volume of 30 ul in a 384 well Nunc HTRF plate. The reactions are incubated at 30° C. for 1.5 hours. The 620 nm fluorescence is then read on a Rubystar HTRF plate reader (BMG Labtechnologies) using a 50 millisecond delay followed by a 400 millisecond acquisition time window. Inhibitor IC50 values are derived from non-linear regression analysis of concentration response curves.
Sequence of Beta-secretase 1 (P56817 whole entry): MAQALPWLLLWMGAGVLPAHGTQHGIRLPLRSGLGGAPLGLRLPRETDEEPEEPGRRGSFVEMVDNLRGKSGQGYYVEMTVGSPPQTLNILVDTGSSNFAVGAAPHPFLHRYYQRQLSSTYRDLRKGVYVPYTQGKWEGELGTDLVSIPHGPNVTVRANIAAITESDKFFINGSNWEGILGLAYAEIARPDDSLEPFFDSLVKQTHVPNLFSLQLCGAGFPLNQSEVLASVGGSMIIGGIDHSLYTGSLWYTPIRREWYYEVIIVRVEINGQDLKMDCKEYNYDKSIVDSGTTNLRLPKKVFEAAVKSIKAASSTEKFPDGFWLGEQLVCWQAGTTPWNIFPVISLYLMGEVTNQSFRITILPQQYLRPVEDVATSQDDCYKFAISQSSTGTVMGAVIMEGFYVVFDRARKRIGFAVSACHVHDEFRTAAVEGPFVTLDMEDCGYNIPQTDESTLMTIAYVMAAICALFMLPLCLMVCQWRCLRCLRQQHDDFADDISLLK

CN1CCC2(CC1)C(=N)N[C@](C)(c1cc(NC(=O)C(F)F)ccc1F)CS2(=O)=O
Ki (Beta-secretase 2): 0.21 µM
Ki (Beta-secretase 1): 1.71 µM
